Test results published in US20210038559A1, “CANNABINOIDS AND DERIVATIVES FOR PROMOTING IMMUNOGENICITY OF TUMOR AND INFECTED CELLS” (priority 2018, published 2021).

Experiments:
[1] = system: MHC-I expression, COLO 205 cells; assay: Time course of MHC-I expression in CBD-treated COLO 205 cells; assay type: cell-based, human; settings: COLO 205, 15 μM
Procedure: FIG. 5. MHC-I expression (MFI) is induced over time in CBD-treated COLO 205 cells.
To determine whether changes in gene expression play a role in cannabinoid-induced MHC-I expression, COLO 205 cells were incubated with 15 μM CBD and cells were harvested at 6, 12, 24, and 48 hours for determination of MHC-I expression by flow cytometry.

[2] = system: MHC class I expression on COLO 205 cells; assay: MHC class I expression on COLO 205 cells, 24 hours, flow cytometry (W6/32)
Procedure: FIG. 2A-2F. […] Cells were treated for 24 hours and cell surface MHC class I expression was measured by flow cytometry.
Cannabigerol was also tested for its capacity to induce MHC class I expression in a human colorectal carcinoma cell line, COLO 205. The cells were treated with either 25 μM or 50 μM cannabigerol for 24 hours. Fluorophor (Alexa Fluor 488)-conjugated W6/32 antibody (Thermo Fisher) was used in a flow cytometry assay to quantitate MHC class I expression. […] Cannabigerol is only one of many cannabinoid-like molecules with potential biopharmaceutical activity. […] COLO 205 cells were treated with up to 40 μM of the cannabinoids 1-5 presented in Tables 1 and 2 and evaluated for cell surface MHC class I expression as described above for cannabigerol.

[3] = system: MHC-I expression on COLO 205 cells; assay: Phytocannabinoid MHC-I induction on COLO 205 cells, 0-100 μM, 48 hours
Procedure: FIG. 4. Cell surface MHC class I expression was measured by flow cytometry (MFI).
Phytocannabinoids were tested for MHC-I-inducing activity on COLO 205 cells. Each cannabinoid was tested at a concentration range of 0-100 μM. […] “ND” indicates not determined.

[4] = system: MHC class I expression, mouse Lewis lung carcinoma cell line A9; assay: MHC class I expression in mouse A9 Lewis lung carcinoma cells, 24 hours, flow cytometry; assay type: cell-based; settings: 100 ng/ml, positive control
Procedure: FIG. 1A-1B. Cannabigerol stimulates MHC class I expression in the mouse A9 Lewis lung carcinoma (FIG. 1A) and the human COLO 205 colorectal carcinoma (FIG. 1B) cell lines. Cells were treated for 24 hours with 21.2 μM (A) or 25 and 50 μM (FIG. 1B) cannabigerol.
Cannabigerol, a representative cannabinoid, was tested for its ability to also stimulate MHC class I expression in mammalian cancer cell lines. The mouse Lewis lung carcinoma cell line, A9, was treated with 21 μM of cannabigerol for 24 hours prior to flow cytometric analysis of cell surface expression of MHC class I expression levels using the MHC class I antibody W6/32 (Thermo Fisher). Control conditions included the vehicle, dimethyl sulfoxide (DMSO, 1%) alone, and 100 ng/ml of trichostatin A (TSA), a histone deacetylase inhibitor and known inducer of MHC class I expression in mammalian cells. […] The positive control, TSA, stimulated expression by 2.4-fold.

[5] = system: MHC-I expression, mouse cancer cell lines; assay: MHC-I expression restoration by IFN-γ in mouse cancer cell lines; assay type: cell-based; settings: 48 hours
Procedure: (§1) FIG. 3A-3B. […] MHC-I downregulation is reversible in the majority of human and mouse cancer cell lines.
(§2) MHC-I expression may be restored in cancers, such as those with intact antigen processing machinery (APM) genes. Various human and mouse cancer cell lines were treated with dose titrations of recombinant human and mouse IFN-γ, respectively. The cells were incubated with IFN-γ for 48 hours in a humidified chamber at 37° C., stained with fluorescent haplotype-appropriate MHC-I antibody, then signal was determined by flow cytometry. Cancers represented in this experiment include brain (SK-N-MC), breast (4T1, EMT6), colorectal (COLO 205, SNU-C1, DLD-1, LS123, LS411N, LoVo, CT26, MC38), kidney (Renca), lung (NCI-H146, LLC), lymphoid (A20), and skin (A431, SK-MEL-2, B16F10). IFN-γ induced MHC-I expression in a dose-dependent manner in 6/10 (60%) human and 6/9 mouse (67%) cell lines. […] The results are found in FIGS. 3A-3B.

[6] = system: MHC-I expression, human cancer cell lines; assay: MHC-I expression restoration by IFN-γ in human cancer cell lines; assay type: cell-based; settings: 48 hours
Procedure: as §1, §2

## C=C(C)[C@@H]1CCC(C)=CC1c1c(O)cc(CCCCC)cc1O (stereo partly drawn) [Example 2, 2-[1R-3-methyl-6R-(1-methylethenyl)-2-cyclohexen-1-yl]-5-pentyl-1,3-benzenediol]
[1]; 48 hr
  MHC-I expression: robust induction
[1]; by 24 hours
  MHC-I expression: slight increase
[2]; COLO 205, 10 μM, W6/32 staining
  MFI: 141
[2]; COLO 205, 20 μM, W6/32 staining
  MFI: 205
[2]; COLO 205, 30 μM, W6/32 staining
  MFI: 199
[2]; COLO 205, 40 μM, W6/32 staining
  MFI: 82
[2]; Homo sapiens, COLO 205
  fold induction at 10 µM: 1.17
  fold induction at 20 µM: 1.69
  fold induction at 30 µM: 1.64
  fold induction at 40 µM: 0.68
[3]; Homo sapiens, COLO 205, 48 h
  EC50: 10 µM
[3]; MHC-I expression on COLO 205 cells, 0-100 μM, 48 hours, relative to control cells treated only with buffer
  Fold Induction: 2.8 Fold

## CC(/C=C/C(=O)NO)=C\[C@@H](C)C(=O)c1ccc(N(C)C)cc1 [TSA, trichostatin A, reference compound]
[4]
  increase in MHC class I expression: 2.4 fold

## Interferon-γ: a natural cytokine known to stimulate MHC class I expression in many mammalian cells
[5]
  cell lines with dose-dependent induction of MHC-I expression: 6/9
[2]; COLO 205, 0.004 ng/mL
  MFI: 119
[2]; COLO 205, 0.012 ng/mL
  MFI: 193
[2]; COLO 205, 0.040 ng/mL
  MFI: 250
[2]; COLO 205, 0.110 ng/mL
  MFI: 321
[2]; COLO 205, 1.000 ng/mL
  MFI: 483
[2]; COLO 205, 3.000 ng/mL
  MFI: 482
[2]; COLO 205, interferon-γ reference
  increase in MHC class I expression (maximum): ≤ 4 fold
[6]
  cell lines with dose-dependent induction of MHC-I expression: 6/10
